Reference: patent publication US9303012B2, “Pyridine-2-amides useful as CB2 agonists” (Hoffmann-La Roche Inc., priority 2012, dated 2016)

How the values were obtained:
[1] = biological target: human CB2 receptors (Homo sapiens (Human), UniProt P34972); assay: functional cAMP assay, CHO cells expressing human CB2 receptors; format: cell-based
Procedure, shortened: (§1)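 Agonist EC50 values came from cAMP levels in CHO cells carrying human CB1 or CB2, after 30 min of compound treatment at 30 °C in the presence of 1 mM IBMX. Detection used a time-resolved FRET cAMP kit read against a cAMP standard curve.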

[2] = biological target: human CB1 receptors (Homo sapiens (Human), UniProt P21554); assay: functional cAMP assay, CHO cells expressing human CB1 receptors; format: cell-based
human CB1 receptors, sequence (P21554 whole entry): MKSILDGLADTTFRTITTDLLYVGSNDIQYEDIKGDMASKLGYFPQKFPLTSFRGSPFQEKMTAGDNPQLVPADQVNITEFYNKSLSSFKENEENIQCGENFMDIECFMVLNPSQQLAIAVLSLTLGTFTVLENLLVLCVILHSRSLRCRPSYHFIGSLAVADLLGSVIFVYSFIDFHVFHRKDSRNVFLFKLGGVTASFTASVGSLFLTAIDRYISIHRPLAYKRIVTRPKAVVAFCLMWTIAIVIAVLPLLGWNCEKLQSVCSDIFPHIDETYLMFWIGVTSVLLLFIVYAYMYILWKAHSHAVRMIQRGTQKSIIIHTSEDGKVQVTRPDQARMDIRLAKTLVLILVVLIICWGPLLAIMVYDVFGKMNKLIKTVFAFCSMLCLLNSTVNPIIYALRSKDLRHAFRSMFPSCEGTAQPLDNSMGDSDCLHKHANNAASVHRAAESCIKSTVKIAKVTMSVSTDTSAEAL
Procedure, shortened: as §1

human CB2 receptors, sequence (P34972 whole entry): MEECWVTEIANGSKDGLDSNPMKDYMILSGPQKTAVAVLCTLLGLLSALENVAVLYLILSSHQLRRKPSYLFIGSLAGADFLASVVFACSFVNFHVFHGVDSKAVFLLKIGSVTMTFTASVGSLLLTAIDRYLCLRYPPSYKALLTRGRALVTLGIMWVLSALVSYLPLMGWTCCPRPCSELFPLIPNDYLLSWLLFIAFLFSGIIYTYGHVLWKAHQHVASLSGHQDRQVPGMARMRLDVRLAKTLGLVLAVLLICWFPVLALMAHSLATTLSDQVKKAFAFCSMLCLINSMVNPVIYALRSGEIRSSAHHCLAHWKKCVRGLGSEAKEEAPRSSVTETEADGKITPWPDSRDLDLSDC

SMILES | EC50 [1] [nM] | EC50 [2] [nM]
O=C(c1ccc(N2CC(F)(F)C2)c(OCC2CC2)n1)N1C[C@H]2CC[C@@H](C1)O2 [Example 85, [6-Cyclopropylmethoxy-5-(3,3-difluoro-azetidin-1-yl)-pyridin-2-yl]-(1S,5R)-8-oxa-3-aza-bicyclo[3.2.1]oct-3-yl-methanone] | 85.4 | > 10000
CC(C)CS(=O)(=O)c1nc(C(=O)N2CCCC2(C)C)ccc1C1CC1 [Example 30, [5-Cyclopropyl-6-(2-methyl-propane-1-sulfonyl)-pyridin-2-yl]-(2,2-dimethyl-pyrrolidin-1-yl)-methanone] | 34.5 | > 10000
O=C(c1ccc(C2CC2)c(OCC2CC2)n1)N1CC(O)(C(F)(F)F)C1 [Example 144, [5-Cyclopropyl-6-(cyclopropylmethoxy)pyridin-2-yl]-[3-hydroxy-3-(trifluoromethyl)azetidin-1-yl]methanone] | 73 | > 10000
NC(=O)[C@@H]1CC(F)(F)CN1C(=O)c1ccc(N2CC(F)(F)C2)c(OCCF)n1 [Example 147, (2S)-1-[5-(3,3-Difluoroazetidin-1-yl)-6-(2-fluoroethoxyl)pyridine-2-carbonyl]-4,4-difluoro-pyrrolidine-2-carboxamide] | 1170 | > 10000
O=C(c1ccc(N2CC(F)(F)C2)c(OCC2CC2)n1)N1C[C@@H]2CC[C@H]1C2 [Example 59, (1S,4R)-2-Aza-bicyclo[2.2.1]hept-2-yl-[6-cyclopropylmethoxy-5-(3,3-difluoro-azetidin-1-yl)-pyridin-2-yl]-methanone] | 14.2 | > 10000
O=C(c1ccc(N2CC(F)(F)C2)c(OCC2CC2)n1)N1CC2(C1)CS(=O)(=O)C2 [Example 71, [6-Cyclopropylmethoxy-5-(3,3-difluoro-azetidin-1-yl)-pyridin-2-yl]-(2,2-dioxo-2λ6-thia-6-aza-spiro[3.3]hept-6-yl)-methanone] | 444 | > 10000
NC(=O)[C@@H]1CC(F)(F)CN1C(=O)c1ccc(C2(F)CCC2)c(OCC2CC2)n1 [Example 130, (2S)-1-[6-(Cyclopropylmethoxy)-5-(1-fluorocyclobutyl)pyridine-2-carbonyl]-4,4-difluoropyrrolidine-2-carboxamide] | 2.3 | > 10000
CC1(C)COCCN1C(=O)c1ccc(N2CC(F)(F)C2)c(OCC2CC2)n1 [Example 17, [6-Cyclopropylmethoxy-5-(3,3-difluoro-azetidin-1-yl)-pyridin-2-yl]-(3,3-dimethyl-morpholin-4-yl)-methanone] | 5.2 | > 10000
O=C(c1ccc(N2CC(F)(F)C2)c(OCC2CC2)n1)N1CCC(C(O)C(F)(F)F)C1 (stereo not drawn) [Example 136, [6-(Cyclopropylmethoxy)-5-(3,3-difluoroazetidin-1-yl)pyridin-2-yl]-[3-(2,2,2-trifluoro-1-hydroxyethyl)pyrrolidin-1-yl]methanone] | 32.9 | > 10000
NC(=O)[C@@H]1C[C@H](F)CN1C(=O)c1ccc(N2CC(F)(F)C2)c(OCC2CC2)n1 [Example 80, (2S,4S)-1-[6-Cyclopropylmethoxy-5-(3,3-difluoro-azetidin-1-yl)-pyridine-2-carbonyl]-4-fluoro-pyrrolidine-2-carboxylic acid amide] | 342 | > 10000
CCOC(=O)C1CCCN(C(=O)c2ccc(N3CC(F)(F)C3)c(OCC3CC3)n2)C1c1ccccc1 (stereo not drawn) [Example 67, 1-[6-Cyclopropylmethoxy-5-(3,3-difluoro-azetidin-1-yl)-pyridine-2-carbonyl]-2-phenyl-piperidine-3-carboxylic acid ethyl ester] | 368 | > 10000
O=C(c1ccc(N2CC(F)(F)C2)c(OCC2CC2)n1)N1CCN(CC2CC2)CC1 [Example 106, [6-Cyclopropylmethoxy-5-(3,3-difluoro-azetidin-1-yl)-pyridin-2-yl]-(4-cyclopropylmethyl-piperazin-1-yl)-methanone] | 123 | > 10000
COC(=O)C1CCCN1C(=O)c1ccc(N2CC(F)(F)C2)c(OCC2CC2)n1 (stereo not drawn) [Example 108, 1-[6-Cyclopropylmethoxy-5-(3,3-difluoro-azetidin-1-yl)-pyridine-2-carbonyl]-pyrrolidine-2-carboxylic acid methyl ester] | 156 | > 10000
NC(=O)[C@H]1CS(=O)(=O)CN1C(=O)c1ccc(C2CC2)c(OCC2CC2)n1 [Example 117, (+)-3-(5-Cyclopropyl-6-cyclopropylmethoxy-pyridine-2-carbonyl)-1,1-dioxo-1λ^6-thiazolidine-4-carboxylic acid amide] | 485 | > 10000
NC(=O)C1CS(=O)(=O)CN1C(=O)c1ccc(C2(O)CCC2)c(OCC2CC2)n1 (stereo not drawn) [Example 131, 3-[6-(Cyclopropylmethoxy)-5-(1-hydroxycyclobutyl)pyridine-2-carbonyl]-1,1-dioxo-1,3-thiazolidine-4-carboxamide] | 62.5 | > 10000
NC(=O)[C@@H]1CSCN1C(=O)c1ccc(N2CC(F)(F)C2)c(OCC2CC2)n1 [Example 112, (−)-3-[6-Cyclopropylmethoxy-5-(3,3-difluoro-azetidin-1-yl)-pyridine-2-carbonyl]-thiazolidine-4-carboxylic acid amide] | 19.8 | > 10000
CC(C)(C)OC(=O)N1CCC2(CCCN2C(=O)c2ccc(N3CC(F)(F)C3)c(OCC3CC3)n2)CC1 [Example 74, 1-[6-Cyclopropylmethoxy-5-(3,3-difluoro-azetidin-1-yl)-pyridine-2-carbonyl]-1,8-diaza-spiro[4.5]decane-8-carboxylic acid tert-butyl ester] | 11.5 | > 10000
O=C(c1ccc(N2CC(F)(F)C2)c(OCC2CC2)n1)N1CC(F)(F)C[C@H]1CO [Example 53, [6-Cyclopropylmethoxy-5-(3,3-difluoro-azetidin-1-yl)-pyridin-2-yl]-((S)-4,4-difluoro-2-hydroxymethyl-pyrrolidin-1-yl)-methanone] | 3.7 | > 10000
O=C(c1ccc(N2CC(F)(F)C2)c(OCC2CC2)n1)N1C[C@@H]2C[C@H]1CO2 [Example 65, [6-Cyclopropylmethoxy-5-(3,3-difluoro-azetidin-1-yl)-pyridin-2-yl]-(1S,4S)-2-oxa-5-aza-bicyclo[2.2.1]hept-5-yl-methanone] | 100 | > 10000
Cc1nc(C(C2CC2)N(C)C(=O)c2ccc(C3CC3)c(OCC3CCOCC3)n2)no1 (stereo not drawn) [Example 33, 5-Cyclopropyl-6-(tetrahydro-pyran-4-ylmethoxy)-pyridine-2-carboxylic acid [cyclopropyl-(5-methyl-[1,2,4]oxadiazol-3-yl)-methyl]-methyl-amide] | 55.4 | > 10000
CC1(C)CCN(C(=O)c2ccc(C3CC3)c(Cc3ccc(F)cc3)n2)CC1 [Example 42, [5-Cyclopropyl-6-(4-fluoro-benzyl)-pyridin-2-yl]-(4,4-dimethyl-piperidin-1-yl)-methanone] | 9 | > 10000
CC1(O)CCN(C(=O)c2ccc(N3CC(F)(F)C3)c(OCC3CC3)n2)CC1 [Example 61, [6-Cyclopropylmethoxy-5-(3,3-difluoro-azetidin-1-yl)-pyridin-2-yl]-(4-hydroxy-4-methyl-piperidin-1-yl)-methanone] | 391 | > 10000
O=C(c1ccc(N2CC(F)(F)C2)c(OCC2CC2)n1)N1CC(F)(F)C1 [Example 102, [6-Cyclopropylmethoxy-5-(3,3-difluoro-azetidin-1-yl)-pyridin-2-yl]-(3,3-difluoro-azetidin-1-yl)-methanone] | 181 | > 10000
NC(=O)[C@@H]1CS(=O)(=O)CN1C(=O)c1ccc(N2CC(F)(F)C2)c(OCC2CC2)n1 [Example 127, (−)-3-[6-(Cyclopropylmethoxy)-5-(3,3-difluoroazetidin-1-yl)pyridine-2-carbonyl]-1,1-dioxo-1,3-thiazolidine-4-carboxamide] | 3.4 | > 10000
CC1(C)COCN1C(=O)c1ccc(OC(F)(F)F)c(OCC2CC2)n1 [Example 48, (6-Cyclopropylmethoxy-5-trifluoromethoxy-pyridin-2-yl)-(4,4-dimethyl-oxazolidin-3-yl)-methanone] | 108 | > 10000
O=C(c1ccc(N2CC(F)(F)C2)c(OCC2CC2)n1)N1CCC(O)(C(F)(F)F)C1 (stereo not drawn) [Example 138, [6-(Cyclopropylmethoxy)-5-(3,3-difluoroazetidin-1-yl)pyridin-2-yl]-[3-hydroxy-3-(trifluoromethyl)pyrrolidin-1-yl]methanone] | 83.5 | > 10000
CC1C(c2ccccc2)CCCN1C(=O)c1ccc(N2CC(F)(F)C2)c(OCC2CC2)n1 (stereo not drawn) [Example 64, [6-Cyclopropylmethoxy-5-(3,3-difluoro-azetidin-1-yl)-pyridin-2-yl]-(2-methyl-3-phenyl-piperidin-1-yl)-methanone] | 40.5 | > 10000
O=C(c1ccc(N2CC(F)(F)C2)c(OCC2CC2)n1)N1CC2(COC2)C1 [Example 11, [6-Cyclopropylmethoxy-5-(3,3-difluoro-azetidin-1-yl)-pyridin-2-yl]-(2-oxa-6-aza-spiro[3.3]hept-6-yl)-methanone] | 364 | > 10000
CN(C(=O)c1ccc(C2CC2)c(OCC2CCCO2)n1)C(C)(C)C (stereo not drawn) [Example 4, 5-Cyclopropyl-6-(tetrahydro-furan-2-ylmethoxy)-pyridine-2-carboxylic acid tert-butyl-methyl-amide] | 8.5 | > 10000
CN(C=O)C(=O)c1ccc(N2CC(F)(F)C2)c(OCC2CC2)n1 [Example 51, 6-(Cyclopropylmethoxy)-5-(3,3-difluoroazetidin-1-yl)-N-formyl-N-methylpyridine-2-carboxamide] | 789 | > 10000
